Measured values reported in patent EP1561465A2, “Methods of use of fluoroquinolone compounds against bacteria” (LG Life Sciences, Ltd., priority 1999, dated 2001).
In brackets after ≈: the same amount, converted by molar mass. Read-outs that look alike come from different tables or passages of the source.

Legend:
[1] = tested on: Moraxella catarrhalis; assay: MIC by agar dilution (NCCLS), 411 isolates Buenos Aires 1998-99; type: cell-based; conditions: Moraxella catarrhalis (n = 59)
[2] = tested on: E. faecalis; assay: Urinary bactericidal titers (UBT) and AUBTC of volunteers' urine; type: cell-based; conditions: urine after gemifloxacin 320 mg or ofloxacin 400 mg
[3] = tested on: Enterococcus faecium; assay: MIC by agar macrodilution (NCCLS), 373 Gram positive isolates, Athens 1998; type: cell-based
[4] = tested on: Enterobacter cloacae; assay: MIC by NCCLS broth microdilution, 1100 Japanese clinical isolates 1997-1998; type: cell-based; conditions: Enterobacter cloacae (n=40)
[5] = tested on: Moraxella catarrhalis; assay: MIC by two-fold serial agar dilution, Sensitivity Disk agar-N (Kitasato isolates); type: cell-based; conditions: Moraxella catarrhalis (22)
[6] = tested on: Morganella morganii; assay: MIC by NCCLS broth microdilution, 1100 Japanese clinical isolates 1997-1998; type: cell-based; conditions: Morganella morganii (n=40)
[7] = tested on: K. pneumoniae; assay: Urinary bactericidal titers (UBT) and AUBTC of volunteers' urine; type: cell-based; conditions: K. pneumoniae (16) Laboratory No. 595; urine after gemifloxacin 320 mg or ofloxacin 400 mg
[8] = tested on: Shigella spp.; assay: MIC by agar dilution (NCCLS M7-A4), 288 enteropathogenic isolates, eight quinolones; type: cell-based; conditions: Shigella spp. (n = 21)
[9] = tested on: Enterococcus faecium; assay: MIC by NCCLS broth microdilution, 1100 Japanese clinical isolates 1997-1998; type: cell-based; conditions: for MIC: Enterococcus faecium
[10] = tested on: S. aureus; assay: Urinary bactericidal titers (UBT) and AUBTC of volunteers' urine; type: cell-based; conditions: urine after gemifloxacin 320 mg or ofloxacin 400 mg
[11] = tested on: P. mirabilis; assay: MIC and MBC by microdilution in Mueller-Hinton broth, uropathogens; type: cell-based
Method: (§1) MICs and MBCs were determined by a microdilution method with Mueller-Hinton broth. An inoculum of 1.3-9.4 x 10^5 colony forming units (CFU) per ml was used.
(§2) Strains included a reference strain E. coli ATCC 25922, susceptible to nalidixic acid (Nal-S) and the following clinical isolates obtained from complicated UTI patients: E. coli (resistant to nalidixic acid), K. pneumoniae, P. mirabilis , P. aeruginosa, […] (3 strains) and Enterococcus faecalis (2 strains).

[12] = tested on: K. pneumoniae; assay: as above; type: cell-based
Method: as §1, §2

[13] = tested on: P. aeruginosa; assay: as above; type: cell-based
Method: as §1, §2

[14] = tested on: E. faecalis; assay: as above; type: cell-based; conditions: Enterococcus faecalis
Method: as §1, §2

[15] = tested on: E. coli; assay: as above; type: cell-based
Method: as §1, §2

[16] = tested on: S. aureus; assay: as above; type: cell-based; conditions: Staphylococcus aureus
Method: as §1, §2

[17] = tested on: Moraxella catarrhalis; assay: MIC by NCCLS reference broth microdilution, 450 respiratory tract pathogens; type: cell-based
[18] = tested on: Citrobacter freundii; assay: MIC by NCCLS broth microdilution, 1100 Japanese clinical isolates 1997-1998; type: cell-based
[19] = tested on: Campylobacter jejuni; assay: MIC by agar dilution (NCCLS M7-A4), 5% sheep blood, microaerophilic 48 h; type: cell-based; conditions: Campylobacter jejuni (n=91)
[20] = tested on: Enterococcus faecalis; assay: MIC by NCCLS broth microdilution, 1100 Japanese clinical isolates 1997-1998; type: cell-based; conditions: for MIC90 / MIC50: Enterococcus faecalis
[21] = set-up: species or system healthy volunteers; conditions: human, in vivo, po
[22] = E. faecalis Laboratory No. 55, inoculum 6.0 CFU 10^5/ml
[23] = E. faecalis Laboratory No. 60, inoculum 7.0 CFU 10^5/ml
[24] = S. aureus Laboratory No. 83, inoculum 7.1 CFU 10^5/ml
[25] = S. aureus Laboratory No. 161, inoculum 9.4 CFU 10^5/ml
[26] = S. aureus Laboratory No. 636, inoculum 5.6 CFU 10^5/ml
[27] = Enterococcus faecalis ciprofloxacin resistant (n=15)
[28] = Enterococcus faecalis ciprofloxacin susceptible (n=24)

CO/N=C1\CN(c2nc3c(cc2F)c(=O)c(C(=O)O)cn3C2CC2)CC1CN (racemic) [Gemifloxacin, (R,S)-7-(3-aminomethyl-4-methoxyiminopyrrolidin-1-yl)-1-cyclopropyl-6-fluoro-4-oxo-1,4-dihydro-1,8-naphthyridine-3-carboxylic acid]
MIC Range [1]: ≤0.004 to 0.016 µg/mL | MIC90 ([1]; read-out: MIC90): 0.008 µg/mL (≈ 0.0205 µM) | AUBTC (range) ([2]; E. faecalis (13) Laboratory No. 55): 39 (0-102) | AUBTC (range) ([2]; E. faecalis (16) Laboratory No. 60): 246 (96-516) | MIC distribution (µg/ml) 0.03 [3]: 0 | MIC distribution (µg/ml) 0.06 [3]: 1 | MIC distribution (µg/ml) 0.125 [3]: 4 | MIC distribution (µg/ml) 0.25 [3]: 0 | MIC distribution (µg/ml) 0.5 [3]: 4 | MIC distribution (µg/ml) 1 [3]: 0 | MIC distribution (µg/ml) 2 [3]: 0 | MIC distribution (µg/ml) 4 [3]: 2 | MIC distribution (µg/ml) 16 [3]: 3 | MIC distribution (µg/ml) ≤0.015 [3]: 0 | MIC distribution (µg/ml) ≥32 [3]: 0 | MIC50 ([3]; Enterococcus faecium, n = 14 isolates, read-out: MIC50): 0.25 µg/mL (≈ 0.642 µM) | MIC90 ([3]; Enterococcus faecium, n = 14 isolates, read-out: MIC90): 16 µg/mL (≈ 41.1 µM) | MIC Range ([3]; n = 14 isolates): 0.06 to 16 µg/mL | MIC distribution (µg/ml) 8 ([3]; number of isolates at MIC 8 µg/ml, n = 14): 8 | MIC50 [4]: 0.032 µg/mL (≈ 0.0822 µM) | MIC90 [4]: 1 µg/mL (≈ 2.57 µM) | MIC Range [4]: ≤0.008 to 2 µg/mL | MIC50 [5]: 0.031 µg/mL (≈ 0.0796 µM) | MIC90 [5]: 0.031 µg/mL (≈ 0.0796 µM) | MIC Range [5]: 0.016 to 0.031 µg/mL | MIC Range [6]: 0.016 to 16 µg/mL | MIC50 ([6]; read-out: MIC50): 0.063 µg/mL (≈ 0.162 µM) | MIC90 ([6]; read-out: MIC90): 0.25 µg/mL (≈ 0.642 µM) | AUBTC (range) [7]: 321 (72-564) | % Susceptible [8]: 100% | MIC50 [8]: ≤ 0.015 µg/mL | MIC90 [8]: ≤ 0.015 µg/mL | MIC Range [8]: ≤0.015 µg/mL | MIC50 ([9]; Enterococcus faecium (n=39)): 16 µg/mL (≈ 41.1 µM) | MIC90 ([9]; Enterococcus faecium (n=39)): 64 µg/mL (≈ 164 µM) | MIC Range ([9]; Enterococcus faecium (n=39)): 0.063 to 64 µg/mL | MIC ([9]; Enterococcus faecium (vanA) vancomycin resistant, strain TMS1): 16 µg/mL (≈ 41.1 µM) | MIC ([9]; Enterococcus faecium (vanA) vancomycin resistant, strain TMS2): 2 µg/mL (≈ 5.14 µM) | MIC ([9]; Enterococcus faecium (vanA) vancomycin resistant, strain TMS3): 4 µg/mL (≈ 10.3 µM) | MIC ([9]; Enterococcus faecium (vanA) vancomycin resistant, strain TMS4): 4 µg/mL (≈ 10.3 µM) | MIC ([9]; Enterococcus faecium (vanA) vancomycin resistant, strain TMS5): 2 µg/mL (≈ 5.14 µM) | MIC ([9]; Enterococcus laecium (van B) vancomycin resistant, strain TMS6): 32 µg/mL (≈ 82.2 µM) | MIC ([9]; Enterococcus laecium (van B) vancomycin resistant, strain TMS7): 32 µg/mL (≈ 82.2 µM) | AUBTC (range) ([10]; S. aureus (13) Laboratory No. 636): 108 (0-408) | AUBTC (range) ([10]; S. aureus (16) Laboratory No. 83): 540 (246-834) | AUBTC (range) ([10]; S. aureus (16) Laboratory No. 161): 60 (0-144) | MIC ([11]; P. mirabilis Laboratory No. 414, inoculum 2.5 CFU 10^5/ml): 0.125 µg/mL (≈ 0.321 µM) | MIC ([11]; Proteus mirabilis): 0.125 µg/mL (≈ 0.321 µM) | MBC ([11]; Proteus mirabilis, P. mirabilis Laboratory No. 414, inoculum 2.5 CFU 10^5/ml): 0.25 µg/mL (≈ 0.642 µM) | MIC ([12]; K. pneumoniae Laboratory No. 595, inoculum 3.7 CFU 10^5/ml): 0.03 µg/mL (≈ 0.077 µM) | MBC ([12]; Klebsiella pneumoniae, K. pneumoniae Laboratory No. 595, inoculum 3.7 CFU 10^5/ml): 0.03 µg/mL (≈ 0.077 µM) | MIC ([12]; Klebsiella pneumoniae, K. pneumoniae clinical isolate, read-out: MIC): 0.03 µg/mL (≈ 0.077 µM) | MIC ([13]; P. aeruginosa Laboratory No. 568, inoculum 5.6 CFU 10^5/ml): 1 µg/mL (≈ 2.57 µM) | MBC ([13]; Pseudomonas aeruginosa, P. aeruginosa Laboratory No. 568, inoculum 5.6 CFU 10^5/ml): 2 µg/mL (≈ 5.14 µM) | MIC ([13]; Pseudomonas aeruginosa, P. aeruginosa clinical isolate, read-out: MIC): 1 µg/mL (≈ 2.57 µM) | MBC [14, 22]: 2 µg/mL (≈ 5.14 µM) | MIC [14, 22]: 0.5 µg/mL (≈ 1.28 µM) | MBC [14, 23]: 0.06 µg/mL (≈ 0.154 µM) | MIC [14, 23]: 0.06 µg/mL (≈ 0.154 µM) | MIC ([14]; E. faecalis isolate (0.06/2)): 0.06 µg/mL (≈ 0.154 µM) | MIC ([14]; E. faecalis isolate (0.5/32)): 0.5 µg/mL (≈ 1.28 µM) | MIC ([15]; E. coli ATCC 25922, inoculum 1.3 CFU 10^5/ml): 0.016 µg/mL (≈ 0.0411 µM) | MIC ([15]; E. coli Laboratory No. 523, inoculum 3.4 CFU 10^5/ml): 0.06 µg/mL (≈ 0.154 µM) | MIC ([15]; Escherichia coli, ATCC25922, E. coli ATCC 25922 (reference strain), read-out: MIC): 0.016 µg/mL (≈ 0.0411 µM) | MBC ([15]; Escherichia coli, ATCC25922, E. coli ATCC 25922, inoculum 1.3 CFU 10^5/ml): 0.016 µg/mL (≈ 0.0411 µM) | MBC ([15]; Escherichia coli, E. coli Laboratory No. 523, inoculum 3.4 CFU 10^5/ml): 0.06 µg/mL (≈ 0.154 µM) | MIC ([15]; Escherichia coli, E. coli clinical isolate (0.06/0.5), read-out: MIC): 0.06 µg/mL (≈ 0.154 µM) | MBC [16, 24]: 0.008 µg/mL (≈ 0.0205 µM) | MIC [16, 24]: 0.008 µg/mL (≈ 0.0205 µM) | MBC [16, 25]: 0.25 µg/mL (≈ 0.642 µM) | MIC [16, 25]: 0.25 µg/mL (≈ 0.642 µM) | MBC [16, 26]: 2 µg/mL (≈ 5.14 µM) | MIC [16, 26]: 2 µg/mL (≈ 5.14 µM) | MIC ([16]; S. aureus isolate (0.008/0.25)): 0.008 µg/mL (≈ 0.0205 µM) | MIC ([16]; S. aureus isolate (0.25/4)): 0.25 µg/mL (≈ 0.642 µM) | MIC ([16]; S. aureus isolate (2/32), quinolone-resistant): 2 µg/mL (≈ 5.14 µM) | MIC ([17]; Moraxella catarrhalis (n = 50)): 0.00375 to 0.03 µg/mL (≈ 0.00963 to 0.077 µM) | MIC50 ([17]; Moraxella catarrhalis (n = 50)): 0.015 µg/mL (≈ 0.0385 µM) | MIC90 ([17]; Moraxella catarrhalis (n = 50)): 0.015 µg/mL (≈ 0.0385 µM) | MIC ([17]; β-lactamase negative (n = 13)): 0.00375 to 0.015 µg/mL (≈ 0.00963 to 0.0385 µM) | MIC50 ([17]; β-lactamase negative (n = 13)): 0.015 µg/mL (≈ 0.0385 µM) | MIC90 ([17]; β-lactamase negative (n = 13)): 0.015 µg/mL (≈ 0.0385 µM) | MIC ([17]; β-lactamase positive (n = 37)): 0.00375 to 0.03 µg/mL (≈ 0.00963 to 0.077 µM) | MIC50 ([17]; β-lactamase positive (n = 37)): 0.015 µg/mL (≈ 0.0385 µM) | MIC90 ([17]; β-lactamase positive (n = 37)): 0.015 µg/mL (≈ 0.0385 µM) | MIC50 ([18]; Citrobacter freundii): 0.125 µg/mL (≈ 0.321 µM) | MIC90 ([18]; Citrobacter freundii (n=39)): 2 µg/mL (≈ 5.14 µM) | MIC Range ([18]; Citrobacter freundii (n=39)): 0.016 to 4 µg/mL | % Susceptible [19]: 31.86% | MIC50 [19]: 32 µg/mL (≈ 82.2 µM) | MIC90 [19]: 128 µg/mL (≈ 329 µM) | MIC Range [19]: 0.03 to 128 µg/mL | MIC90 [20]: 0.125 µg/mL (≈ 0.321 µM) | MIC Range [20, 27]: 0.063 to 32 µg/mL | MIC Range [20, 28]: 0.063 to 0.125 µg/mL | MIC50 [20, 27]: 1 µg/mL (≈ 2.57 µM) | MIC90 ([20]; Enterococcus faecalis ciprofloxacin resistant (n=15), read-out: MIC90): 8 µg/mL (≈ 20.5 µM) | MIC50 [20, 28]: 0.063 µg/mL (≈ 0.162 µM) | tolerability [21]: well tolerated
